These results are taken from patent US9808535B2, “Conjugates for protection from nephrotoxic active substances” (Merck Patent GmbH, priority 2013, dated 2017).

For data set [1] the following is noted: infusion, 740 to 900 mg/m^2 of body surface area; cited from earlier work.
For data set [2] the following is noted: mouse, in vivo, iv.

Residues, ends and D or L forms follow the SMILES beside them. ξ: configuration not given here. *: point of attachment. Lipoyl(6ξ) = O=C(CCCCC1CCSS1)*

Take `NCCCNCCSP(=O)(O)O` [Amifostin]: the “arterial hypotension as severe side effect” value in data set [1] is listed as “In over half of patients”.
Consider `NCCCCC(NC(=O)C(CCC(=O)O)NC(=O)C(CCC(=O)O)NC(=O)C(CCC(=O)O)NC(=O)C(CCCCNC(=O)CCCCC1CCSS1)NC(=O)C(CCCCN)NC(=O)C(CCCCN)NC(=O)C(CCC(=O)O)NC(=O)C(CCC(=O)O)NC(=O)C(CCC(=O)O)NC(=O)C(CCCCNC(=O)CCCCC1CCSS1)NC(=O)C(CCCCN)NC(=O)C(CCCCN)NC(=O)C(CCC(=O)O)NC(=O)C(CCC(=O)O)NC(=O)C(CCC(=O)O)NC(=O)C(CCCCNC(=O)CCCCC1CCSS1)NC(=O)C(CCCCN)NC(=O)C(CCCCN)NC(=O)C(N)Cc1ccc(O)cc1)C(N)=O` (centres unmarked) [y(KKKe(lipoic acid)EEE)3K] (H-YKKK(Lipoyl(6ξ))EEEKKK(Lipoyl(6ξ))EEEKKK(Lipoyl(6ξ))EEEK-NH2; configuration not given here), for which, in data set [2], the kidney specificity entry is “high kidney specificity”.
